Source: patent EP2970215B1, “PYRROLIDINE DERIVATIVES, PHARMACEUTICAL COMPOSITIONS CONTAINING THEM, AND THEIR USE IN THERAPY” (AbbVie Deutschland GmbH & Co. KG, priority 2013, dated 2014)

What follows are compounds tested against T1, human GlyT1c transporter (Homo sapiens, UniProt P48067) (assay: Radioligand binding assay using recombinant CHO cell membranes expressing human GlyT1). Settings: radioligand binding to human GlyT1c transporter-expressing membranes.
T1 construct: expressed in transfected cells; host or cells: CHO cells (recombinant; line hGlyT1c_5_CHO is named for the uptake assay)
T1 sequence (P48067 1-706): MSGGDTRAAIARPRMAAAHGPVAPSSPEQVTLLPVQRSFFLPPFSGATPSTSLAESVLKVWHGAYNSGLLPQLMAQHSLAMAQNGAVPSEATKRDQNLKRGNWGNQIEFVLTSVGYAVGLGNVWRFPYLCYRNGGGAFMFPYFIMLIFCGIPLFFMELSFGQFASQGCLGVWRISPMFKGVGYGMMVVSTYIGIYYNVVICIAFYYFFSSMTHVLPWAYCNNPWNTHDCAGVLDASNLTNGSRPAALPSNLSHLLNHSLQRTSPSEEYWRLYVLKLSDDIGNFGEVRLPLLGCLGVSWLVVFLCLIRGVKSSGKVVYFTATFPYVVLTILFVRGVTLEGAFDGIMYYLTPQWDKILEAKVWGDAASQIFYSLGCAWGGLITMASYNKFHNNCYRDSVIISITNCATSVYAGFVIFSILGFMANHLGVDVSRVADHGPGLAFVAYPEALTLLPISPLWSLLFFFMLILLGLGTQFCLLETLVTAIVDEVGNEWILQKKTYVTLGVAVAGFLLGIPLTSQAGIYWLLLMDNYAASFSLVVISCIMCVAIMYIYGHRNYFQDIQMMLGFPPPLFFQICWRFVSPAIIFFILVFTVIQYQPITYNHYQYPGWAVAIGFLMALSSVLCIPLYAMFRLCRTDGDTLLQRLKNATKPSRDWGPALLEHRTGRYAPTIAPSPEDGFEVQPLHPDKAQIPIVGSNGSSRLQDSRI
Excerpt: 2. Radioligand binding assays using recombinant CHO cell membranes expressing human GlyT1: […]

| Ki [nM] | Compound |
| --- | --- |
| ≤ 10000 | N#Cc1ccccc1S(=O)(=O)N1C[C@@H](Nc2ccc(F)cc2)[C@H](c2ccccc2)C1 (relative stereo) [Example 529, 2-({Trans-3-[(4-fluorophenyl)amino]-4-phenylpyrrolidin-1-yl}sulfonyl)benzonitrile] |
| ≤ 1000 | Cn1cnc(S(=O)(=O)N2C[C@@H](Nc3cccc(Cl)c3)[C@H](OCC3CC3)C2)c1 (relative stereo) [Example 530, Trans-N-(3-chlorophenyl)-4-(cyclopropylmethoxy)-1-[(1-methyl-1H-imidazol-4-yl)sulfonyl]pyrrolidin-3-amine] |
| ≤ 100 | Cn1cnc(S(=O)(=O)N2C[C@@H](Nc3cc(C(F)(F)F)ncn3)[C@H](C3CCCCC3)C2)c1 (relative stereo) [Example 531, N-{trans-4-cyclohexyl-1-[(1-methyl-1H-imidazol-4-yl)sulfonyl]pyrrolidin-3-yl}-6-(trifluoromethyl)pyrimidin-4-amine] |
| ≤ 10000 | CC(C)OCCCNC[C@@H]1CN(S(=O)(=O)c2cn(C)cn2)C[C@H]1c1ccc(F)cc1 (relative stereo) [Example 591, N-({trans-4-(4-fluorophenyl)-1-[(1-methyl-1H-imidazol-4-yl)sulfonyl]pyrrolidin-3-yl}methyl)-3-(propan-2-yloxy)propan-1-amine] |
| ≤ 10000 | CCOCCCNC[C@@H]1CN(S(=O)(=O)c2cn(C)cn2)C[C@H]1c1ccc(F)cc1 (relative stereo) [Example 592, 3-ethoxy-N-({trans-4-(4-fluorophenyl)-1-[(1-methyl-1H-imidazol-4-yl)sulfonyl]pyrrolidin-3-yl}methyl)propan-1-amine] |
| ≤ 10000 | COCCNC[C@@H]1CN(S(=O)(=O)c2cn(C)cn2)C[C@H]1c1ccc(F)cc1 (relative stereo) [Example 593, N-({trans-4-(4-fluorophenyl)-1-[(1-methyl-1H-imidazol-4-yl)sulfonyl]pyrrolidin-3-yl}methyl)-2-methoxyethanamine] |
| ≤ 10000 | CCCNC[C@@H]1CN(S(=O)(=O)c2cn(C)cn2)C[C@H]1c1ccc(F)cc1 (relative stereo) [Example 594, N-({trans-4-(4-fluorophenyl)-1-[(1-methyl-1H-imidazol-4-yl)sulfonyl]pyrrolidin-3-yl}methyl)propan-1-amine] |
| ≤ 10000 | CCCCNC[C@@H]1CN(S(=O)(=O)c2cn(C)cn2)C[C@H]1c1ccc(F)cc1 (relative stereo) [Example 595, N-({trans-4-(4-fluorophenyl)-1-[(1-methyl-1H-imidazol-4-yl)sulfonyl]pyrrolidin-3-yl}methyl)butan-1-amine] |
| ≤ 10000 | COCCCNC[C@@H]1CN(S(=O)(=O)c2cn(C)cn2)C[C@H]1c1ccc(F)cc1 (relative stereo) [Example 597, N-({trans-4-(4-fluorophenyl)-1-[(1-methyl-1H-imidazol-4-yl)sulfonyl]pyrrolidin-3-yl}methyl)-3-methoxypropan-1-amine] |
| ≤ 10000 | CCOCCNC[C@@H]1CN(S(=O)(=O)c2cn(C)cn2)C[C@H]1c1ccc(F)cc1 (relative stereo) [Example 598, 2-ethoxy-N-({trans-4-(4-fluorophenyl)-1-[(1-methyl-1H-imidazol-4-yl)sulfonyl]pyrrolidin-3-yl}methyl)ethanamine] |
| ≤ 10000 | CC(C)OCCNC[C@@H]1CN(S(=O)(=O)c2cn(C)cn2)C[C@H]1c1ccc(F)cc1 (relative stereo) [Example 599, N-({trans-4-(4-fluorophenyl)-1-[(1-methyl-1H-imidazol-4-yl)sulfonyl]pyrrolidin-3-yl}methyl)-2-(propan-2-yloxy)ethanamine] |
| ≤ 1000 | CCCCCNC(=O)[C@@H]1CN(S(=O)(=O)c2cn(C)cn2)C[C@H]1c1ccc(F)cc1 (relative stereo) [Example 626, Trans-4-(4-fluorophenyl)-1-[(1-methyl-1H-imidazol-4-yl)sulfonyl]-N-pentylpyrrolidine-3-carboxamide] |
| ≤ 10 | Cn1cnc(S(=O)(=O)N2C[C@@H](C(=O)NCc3cccc(Cl)c3)[C@H](c3ccc(F)cc3)C2)c1 (relative stereo) [Example 628, Trans-N-(3-chlorobenzyl)-4-(4-fluorophenyl)-1-[(1-methyl-1H-imidazol-4-yl)sulfonyl]pyrrolidine-3-carboxamide] |
| ≤ 1000 | Cn1cnc(S(=O)(=O)N2C[C@@H](C(=O)NCc3ccc(Cl)cc3)[C@H](c3ccc(F)cc3)C2)c1 (relative stereo) [Example 629, Trans-N-(4-chlorobenzyl)-4-(4-fluorophenyl)-1-[(1-methyl-1H-imidazol-4-yl)sulfonyl]pyrrolidine-3-carboxamide] |
| ≤ 100 | Cn1cnc(S(=O)(=O)N2C[C@@H](C(=O)NCc3ccc(F)cc3)[C@H](c3ccc(F)cc3)C2)c1 (relative stereo) [Example 630, Trans-N-(4-fluorobenzyl)-4-(4-fluorophenyl)-1-[(1-methyl-1H-imidazol-4-yl)sulfonyl]pyrrolidine-3-carboxamide] |
| ≤ 10 | Cn1cnc(S(=O)(=O)N2C[C@@H](C(=O)NCc3ccc(F)c(F)c3)[C@H](c3ccc(F)cc3)C2)c1 (relative stereo) [Example 631, Trans-N-(3,4-difluorobenzyl)-4-(4-fluorophenyl)-1-[(1-methyl-1H-imidazol-4-yl)sulfonyl]pyrrolidine-3-carboxamide] |
| ≤ 1000 | Cn1cnc(S(=O)(=O)N2C[C@@H](C(=O)NCc3cccc(C(F)(F)F)c3)[C@H](c3ccc(F)cc3)C2)c1 (relative stereo) [Example 632, Trans-4-(4-fluorophenyl)-1-[(1-methyl-1H-imidazol-4-yl)sulfonyl]-N-[3-(trifluoromethyl)benzyl]pyrrolidine-3-carboxamide] |
| ≤ 10000 | Cn1cnc(S(=O)(=O)N2C[C@@H](C(=O)NCc3ccccn3)[C@H](c3ccc(F)cc3)C2)c1 (relative stereo) [Example 634, Trans-4-(4-fluorophenyl)-1-[(1-methyl-1H-imidazol-4-yl)sulfonyl] -N-(pyridin-2-ylmethyl)pyrrolidine-3-carboxamide] |
| ≤ 1000 | Cn1cnc(S(=O)(=O)N2C[C@@H](C(=O)NCc3cc(C(F)(F)F)ccn3)[C@H](c3ccc(F)cc3)C2)c1 (relative stereo) [Example 635, Trans-4-(4-fluorophenyl)-1-[(1-methyl-1H-imidazol-4-yl)sulfonyl]-N-{[4-(trifluoromethyl)pyridin-2-yl]methyl}pyrrolidine-3-carboxamide] |
| ≤ 1000 | CCCCN(CCCC)C(=O)[C@@H]1CN(S(=O)(=O)c2cn(C)cn2)C[C@H]1c1ccc(F)cc1 (relative stereo) [Example 636, Trans-N,N-dibutyl-4-(4-fluorophenyl)-1-[(1-methyl-1H-imidazol-4-yl)sulfonyl]pyrrolidine-3-carboxamide] |
| ≤ 10 | Cn1cnc(S(=O)(=O)N2C[C@@H](C(=O)NCc3ccc(F)c(Cl)c3)[C@H](c3ccc(F)cc3)C2)c1 (relative stereo) [Example 642, Trans-N-(3-chloro-4-fluorobenzyl)-4-(4-fluorophenyl)-1-[(1-methyl-1H-imidazol-4-yl)sulfonyl]pyrrolidine-3-carboxamide] |
| ≤ 10000 | CC(C)CCCCCNC(=O)[C@@H]1CN(S(=O)(=O)c2cn(C)cn2)C[C@H]1c1ccc(F)cc1 (relative stereo) [Example 643, Trans-4-(4-fluorophenyl)-N-(6-methylheptyl)-1-[(1-methyl-1H-imidazol-4-yl)sulfonyl]pyrrolidine-3-carboxamide] |
| ≤ 100 | Cn1cnc(S(=O)(=O)N2C[C@@H](NCc3ccc(C(F)(F)F)cc3Cl)[C@H](C3CCCCO3)C2)c1 (relative stereo) [Example 680, Trans-N-[2-chloro-4-(trifluoromethyl)benzyl]-1-[(1-methyl-1H-imidazol-4-yl)sulfonyl]-4-(tetrahydro-2H-pyran-2-yl)pyrrolidin-3-amine] |

| Compound | Ki [nM] |
| --- | --- |
| CCCCCCNC(=O)[C@@H]1CN(S(=O)(=O)c2cn(C)cn2)C[C@H]1c1ccc(F)cc1 (relative stereo) [Example 627, Trans-4-(4-fluorophenyl)-N-hexyl-1-[(1-methyl-1H-imidazol-4-yl)sulfonyl]pyrrolidine-3-carboxamide] | ≤ 1000 |
| Cn1cnc(S(=O)(=O)N2C[C@@H](C(=O)NCc3cc(C(F)(F)F)ccc3Cl)[C@H](c3ccc(F)cc3)C2)c1 (relative stereo) [Example 633, Trans-N-[2-chloro-5-(trifluoromethyl)benzyl]-4-(4-fluorophenyl)-1-[(1-methyl-1H-imidazol-4-yl)sulfonyl]pyrrolidine-3-carboxamide] | ≤ 1000 |
| Cn1cnc(S(=O)(=O)N2C[C@@H](C(=O)NCc3cccc(OC(F)(F)F)c3)[C@H](c3ccc(F)cc3)C2)c1 (relative stereo) [Example 661, Trans-4-(4-fluorophenyl)-1-[(1-methyl-1H-imidazol-4-yl)sulfonyl]-N-[3-(trifluoromethoxy)benzyl]pyrrolidine-3-carboxamide] | ≤ 1000 |
